How the values were obtained:
EP4 [1] = target: T1, EP4 (Homo sapiens (Human), UniProt P35408); experiment: EP4 cAMP functional assay; type: cell-based
EP2 [2] = target: T2, EP2 (Homo sapiens (Human), UniProt P43116); experiment: EP2 radioligand competition binding ([3H]PGE2); conditions: HEK-293 cells stably expressing receptor, [3H]PGE2 radioligand
Procedure: Competition binding experiments were performed in a medium containing Hank's balanced salt solution, Hepes 20 mM, pH 7.3, membranes (˜60 μg protein) or 2×10^5 cells from HEK 293 cells stably expressing human EP2 receptors, [^3H]PGE2 (10 nM) and various concentrations of test compounds in a total volume of 300 μl. Reaction mixtures were incubated at 23° C. for 60 min, and were filtered over Whatman GF/B filters under vacuum. Filters were washed three times with 5 ml ice-cold buffer containing 50 mM Tris/HCl (pH 7.3). Non-specific binding was estimated in the presence of excess unlabeled PGE2 (10 μM). Binding data fitted to the binding model for a single class of binding sites, using nonlinear regression analysis. IC50 values thus obtained were converted to Ki using the equation of Ki=(IC50/(1+[L]/KD) where [L] represents PGE2 concentration (10 nM) and KD the dissociation constant for [^3H]PGE2 at human EP2 receptors (40 nM). […]
The cell homogenate was centrifuged at 19000 r.p.m. for 20 min at 4° C. using a Beckman Ti-60 rotor. The resultant pellet was resuspended in TME buffer to give a final 1 mg/ml protein concentration, as determined by Biorad assay. […]
[^3H—] […] 17-phenyl PGF2a and non-specific binding determined with 10^−5M of unlabeled PGE2, or 17-phenyl PGF2a, according to receptor subtype studied.

EP2 [3] = target: T2, EP2; experiment: EP2 cAMP functional assay; type: cell-based
EP4 [4] = target: T1, EP4; experiment: EP4 radioligand competition binding ([3H]PGE2); conditions: HEK-293 cells stably expressing receptor, [3H]PGE2 radioligand
Procedure: HEK-293 cells stably expressing the human or feline FP receptor, or EP1, EP2, or EP4 receptors were washed with TME buffer, scraped from the bottom of the flasks, and homogenized for 30 sec using a Brinkman PT 10/35 polytron. TME buffer was added to achieve a final 40 ml volume in the centrifuge tubes (the composition of TME is 100 mM TRIS base, 20 mM MgCl2, […]; 10N HCl is added to achieve a pH of 7.4).
The cell homogenate was centrifuged at 19000 r.p.m. for 20 min at 4° C. using a Beckman Ti-60 rotor. The resultant pellet was resuspended in TME buffer to give a final 1 mg/ml protein concentration, as determined by Biorad assay. Radioligand binding competition assays vs. [^3H-]17-phenyl PGF2a (5 nM) were performed in a 100 μl volume for 60 min. Binding reactions were started by adding plasma membrane fraction. The reaction was terminated by the addition of 4 ml ice-cold TRIS-HCl buffer and rapid filtration through glass fiber GF/B filters using a Brandel cell harvester. The filters were washed 3 times with ice-cold buffer and oven dried for one hour.
[^3H—] PGE2 (specific activity 180 Ci mmol) was used as the radioligand for EP receptors. [^3H] 17-phenyl PGF2a was employed for FP receptor binding studies. […] 17-phenyl PGF2a and non-specific binding determined with 10^−5M of unlabeled PGE2, or 17-phenyl PGF2a, according to receptor subtype studied.

T2 sequence (P43116 whole entry): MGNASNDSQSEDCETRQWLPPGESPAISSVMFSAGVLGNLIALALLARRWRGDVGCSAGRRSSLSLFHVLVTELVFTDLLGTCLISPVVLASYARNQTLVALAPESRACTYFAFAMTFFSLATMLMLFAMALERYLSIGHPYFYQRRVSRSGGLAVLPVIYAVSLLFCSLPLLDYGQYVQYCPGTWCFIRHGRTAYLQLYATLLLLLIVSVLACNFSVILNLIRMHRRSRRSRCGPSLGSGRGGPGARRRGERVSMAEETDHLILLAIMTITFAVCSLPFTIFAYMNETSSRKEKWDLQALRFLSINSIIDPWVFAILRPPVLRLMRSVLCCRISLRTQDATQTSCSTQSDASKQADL
T1 sequence (P35408 whole entry): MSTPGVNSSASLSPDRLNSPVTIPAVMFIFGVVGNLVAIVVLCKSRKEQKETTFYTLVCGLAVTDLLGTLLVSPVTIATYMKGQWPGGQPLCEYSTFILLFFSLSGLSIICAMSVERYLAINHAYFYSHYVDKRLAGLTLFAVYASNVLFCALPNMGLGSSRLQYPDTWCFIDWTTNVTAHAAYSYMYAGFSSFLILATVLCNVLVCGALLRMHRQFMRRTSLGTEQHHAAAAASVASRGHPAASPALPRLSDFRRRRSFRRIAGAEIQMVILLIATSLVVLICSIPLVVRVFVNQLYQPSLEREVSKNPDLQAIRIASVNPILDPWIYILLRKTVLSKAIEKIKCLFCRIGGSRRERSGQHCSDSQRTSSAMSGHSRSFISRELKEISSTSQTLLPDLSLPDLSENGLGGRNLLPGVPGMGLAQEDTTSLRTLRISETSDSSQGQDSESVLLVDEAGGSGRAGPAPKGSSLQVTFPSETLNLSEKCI

O=C(O)c1ccc(CCCN2[C@@H](/C=C/C(O)Cc3cccc(C(F)(F)F)c3)CCS2(=O)=O)s1 (stereo partly drawn) [Compound 14, 5-(3-((3R)-3-((E)-3-Hydroxy-4-(3-(trifluoromethyl)phenyl)but-1-en-1-yl)-1,1-dioxidoisothiazolidin-2-yl)propyl)thiophene-2-carboxylic acid]
EC50 (EP4 [1]): 1 nM | EC50 (EP2 [2]): 96 nM | EC50 (EP2 [3]): 38 nM | EC50 (EP4 [4]): 53 nM

Source: patent publication US9340534B2, “Compounds and methods for treating ocular diseases” (Allergan, Inc., priority 2014, dated 2016)
